Results reported in patent publication US8987198B2, “Compositions and methods for treating obesity and diabetes” (The Administrators of the Tulane Educational Fund, priority 2009, dated 2015).

Legend:
[1] = system: Liver X Receptor in LNCaP Cells; test: Up-regulation of LXR-responsive genes ABCG1/ABCA1 in LNCaP cells; type: cell-based; settings: glyceollin at 5 μM for 48 h
Method: LNCaP cells were obtained from the American Type Culture Collection (Manassas, Va.) and maintained in Media A [RPMI 1640 medium with phenol red (Invitrogen, Carlsbad, Calif.), 2 mM L-glutamine (Sigma), 100 U/mL penicillin and 100 μg/mL streptomycin (BioSource International, Camarillo, Calif.) with 10% fetal bovine serum (FBS) (Invitrogen, Carlsbad, Calif.)]. Cells were incubated in the presence of 5% CO2 in air at 37° C.

[2] = system: 3T3-L1 differentiated adipocytes; test: [3H]2-deoxyglucose uptake assay in 3T3-L1 adipocytes; type: cell-based, murine; settings: for glucose uptake after addition of insulin: 0.3 nM insulin + glyceollin; for glucose uptake after addition of insulin / glucose uptake in the absence of insulin: FIG. 17; for glucose uptake in the absence of insulin: 24 h KRH, then 30 min exposure; for insulin-mediated glucose uptake after pre-incubation with glyceollins: 24 hours pre-incubation, 30 min insulin, FIG. 15
Method: Krebs-Ringers-Hepes (KRH) buffer was prepared with 200 mL H2O, 300 μL of 1 M CaCl2, 300 μL of 1.2 M MgSO4, 300 μL of 1 M KH2PO4, 3 mL of 0.14 M KCl, 6 mL of 1 M HEPES in 1.2 M NaHCO3, and 15 mL of 2.6 M NaCl. […] Insulin (MW=5808) stock solution (100 μM) was prepared by dissolving 2.90 mg insulin into 5 mL of 0.01 N HCl. To make working solutions: the stock solution was diluted 1:10 by adding 100 μL stock to 900 μL KRH buffer, giving solution A (10 μM); solution A was diluted by adding 400 μL of solution A to 932 μL KRH buffer, giving solution B (3 μM); solution A was diluted by adding 100 μL of solution A to 900 μL KRH buffer, giving solution C (1 μM); solution B was diluted by adding 100 μL of solution B to 900 μL KRH buffer, giving solution D (300 nM); solution C was diluted by adding 100 μL of solution C to 900 μL KRH buffer, giving solution E (100 nM); solution D was diluted by adding 100 μL of solution D to 900 μL KRH buffer, giving solution F (30 nM); solution E was diluted by adding 100 μL of solution E to 900 μL KRH buffer, giving solution G (10 nM); solution F was diluted by adding 100 μL of solution F to 900 μL KRH buffer, giving solution H (3 nM); solution G was diluted by adding 100 μL of solution G to 900 μL KRH buffer, giving solution I (1 nM); and solution H was diluted by adding 100 μL of solution H to 900 μL KRH buffer, giving solution J (0.3 nM). 100 μL of each concentration was added to each well with a final volume in each well of 1000 μL (1:10 dilution when added to cells). […] This stock solution was kept refrigerated. To make working solutions: 80 μL of the stock solution was diluted with 3920 μL KRH buffer, giving solution A (200 μM); solution A was diluted by adding 500 μL of solution A to 335 μL KRH buffer, giving solution B (120 μM); solution A was diluted by adding 1000 μL of solution A to 1000 μL KRH buffer, giving solution C (100 μM); solution A was diluted by adding 1000 μL of solution A to 1500 μL KRH buffer, giving solution D (80 μM); solution A was diluted by adding 1000 μL of solution A to 2330 μL KRH buffer, giving solution E (60 μM); solution D was diluted by adding 1000 μL of solution D to 1000 μL KRH buffer, giving solution F (40 μM); solution F was diluted by adding 1000 μL of solution F to 1000 μL KRH buffer, giving solution G (20 μM); solution G was diluted by adding 1000 μL of solution G to 1000 μL KRH buffer, giving solution H (10 μM); and solution H was diluted by adding 1000 μL of solution H to 1000 μL KRH buffer, giving solution I (5 μM). 100 μL of each concentration was added to each well with a final volume in each well of 1000 μL (1:10 dilution when added to cells). Unless indicated otherwise (see, e.g., EXAMPLES 14 & 15), where the EXAMPLES below refer to glyceollin, a mixture of glyceollins I, II, and III, was used. Cell culture and differentiation of murine 3T3-L1 cells is a well-accepted model for study of adipocyte differentiation, glucose uptake, and insulin action. These cells undergo a program of differentiation manifest by large lipid droplet accumulation when stimulated by the appropriate hormonal cocktail. The adipocytes express markers such as leptin and adiponectin, express Glut 4, and respond to insulin stimulation by increasing glucose uptake, similar to primary adipocytes. For these experiments, frozen preadipocytes were purchased from Zenbio (Research Triangle Park, N.C.). They were thawed at 37° C., diluted with Zenbio Preadipocyte medium, and incubated in 24-well plates at 37° C. in a humidified atmosphere containing 95% air and 5% CO2 until confluent. Signals derived from confluency were allowed by incubating for 2 more days. Preadipocyte medium was replaced with Zenbio Differentiation Medium and the cells were incubated for 3 additional days; that medium was replaced with Zenbio Adipocyte […] medium for about 2 weeks when greater than 95% of the cells appeared filled with large lipid droplets. […]

Row | Compound | glucose uptake after addition of insulin [2] | glucose uptake in the absence of insulin [2] | insulin-mediated glucose uptake after pre-incubation with glyceollins [2] | further results
1 | O=c1c(-c2ccc(O)cc2)coc2cc(O)cc(O)c12 [Genistein, genistein] | – | – | – | fold up-regulation of ABCG1 [1]: 3 fold
2 | C=C(C)[C@@H]1Cc2cc3c(cc2O1)OC[C@@]1(O)c2ccc(O)cc2O[C@@H]31 [glyceollin III] | further enhanced | can stimulate glucose uptake in the absence of insulin | more effective than glyceollin II | –
3 | CC1(C)C=Cc2c(ccc3c2OC[C@@]2(O)c4ccc(O)cc4O[C@@H]32)O1 [glyceollin I] | further enhanced | can stimulate glucose uptake in the absence of insulin | more effective than glyceollin II | glucose uptake after 30 minute exposure ([2]; 5 μM, cells pre-incubated 24 h with KRH, FIG. 16): stimulate glucose uptake better than glyceollins II and III
4 | Oc1ccc2c(c1)OC[C@@]1(O)c3ccc(O)cc3O[C@@H]21 [glycinol, reference compound] | – | – | – | glucose uptake after 30 minute exposure to glycinol ([2]; 1 μM and 0.1 μM, absence of insulin, FIG. 16 columns 7 and 8): does not present the same bioactivity as glyceollin; glucose uptake with glycinol ([2]; 5 μM glycinol, 24 h pre-incubation, with or without insulin, FIG. 14): ineffective at stimulating glucose uptake
5 | insulin [reference compound] | – | – | – | glucose uptake by insulin alone ([2]; 0.2 nM insulin, FIG. 19 column 2): stimulation of glucose uptake
